Article PMC5274652, “Antagonizing Retinoic Acid Receptors Increases Myeloid Cell Production by Cultured Human Hematopoietic Stem Cells” (Archivum Immunologiae et Therapiae Experimentalis, 2016)

Key:
[1] = system: KG1 cells; test: Differentiation of KG1 cells (CD11b/CD14 flow cytometry); type: cell-based, human; conditions: 96 h
Procedure: (§1) NB-4 and KG1 cells were obtained from the German Resource Center for Biological Material (DSMZ GmbH, Braunschweig, Germany). The cells were grown in RPMI-1640 medium supplemented with 10 % fetal bovine serum (FBS), 100 U/ml penicillin, and 100 µg/ml streptomycin (Sigma, St Louis, MO, USA). Cells were grown at 37 °C in 5 % CO2.
(§2) The expression of differentiation markers at the cell surface was determined by flow cytometry. Differentiation of NB-4 and KG1 cells was measured by staining using the monoclonal antibodies CD11b-FITC and CD14-PE and appropriately labeled isotype controls (all from ImmunoTools, Friesoythe, Germany). Differentiation of human CD34^+ve cells was measured by triple-color staining using various cocktails of phycoerythrin-, fluorescein isothyocyanate-, and PerCP-monoclonal antibodies (from Becton–Dickinson, San Jose, CA, USA). The markers used to identify cell populations were as follows: CD45^+ve leukocytes; CD34^+ve/CD133^+ve HSCs; CD33^+ve/CD13^+ve immature myeloid; CD117^+ve myeloblasts and promyelocytes; CD11b^+ve/CD15^+ve mature myeloid; CD11b^+ve/CD65^+ve neutrophils; CD11b^+ve/CD14^+ve monocytes; glycophorin^+ve A erythroid cells; CD61^+ve megakaryoblasts and platelets; CD2^+ve/CD5^+ve/CD7^+ve T cells and NK cells; CD56^+ve NK cells; CD19^+ve/CD20^+ve B cells; and CD10^+ve B lymphocyte progenitors; and present on mature neutrophils and DR^+ve progenitors and present on mature monocytes. The cells were stained with 1 µl of the fluorescently labeled antibody (or the appropriate control immunoglobulin) for 1 h on ice. Next, they were washed with ice-cold phosphate-buffered saline (PBS) and suspended in 0.5 ml PBS supplemented with 0.1 % bovine serum albumin (Sigma, St Louis, MO, USA) prior to analysis on FACS Calibur flow cytometer (Becton–Dickinson, San Jose, CA, USA). The acquisition parameters were set for an isotype control. Cells were analyzed using a FACSCalibur, and data analysis was performed using the CellQuest Pro software (Becton–Dickinson, San Jose, CA, USA).

[2] = system: CD34^+vehuHSC; test: Cell production and lifespan of CD34+ve huHSC-initiated cultures; type: cell-based, human
Excerpt: (§3) The cells used were CD34^+ve cells purified from the blood of normal human adult donors and post-mobilization of stem cells to the blood. Cells obtained and purified in this manner are used routinely by the National Blood Service Stem Cell Laboratory in Birmingham for bone marrow transplantation. Ethics approval for the use of adult human blood-mobilized stem cells (CD34^+vehuHSC) was from the West Midlands Research Ethics Committee. Informed consent was obtained by the regional National Blood Service Stem Cell Laboratory in Birmingham. CD34^+ve cells were purified to 99 % CD34^+ve, 97 % CD133^+ve, >99 % lineage^−ve (n = 15) using an anti-CD34 monoclonal antibody, immunomagnetic beads, and a CliniMACS magnetic separator. Purified cells were plated at 5 × 10^5 cells/ml in microtiter wells in 200 μl of either RPMI-1640 medium (R and D Systems, Abingdon, UK) or HPGM^TM hematopoietic growth medium (Lonza, UK) containing either 10 % FBS or 10 % human serum, antibiotics (100 U/ml penicillin and 100 μg/ml streptomycin) and stem cell factor (SCF), interleukin (IL)-3, and granulocyte-colony stimulating factor (G-CSF) (all from R and D Systems Abingdon, UK) as stated in the results. Cultures were fed every 2–3 days (with fresh compound), split into microtiter wells, and then expanded into 2 ml Costar wells to maintain a cell density of between 2.5 and 10 × 10^5 cells/ml. Cells were grown at 37 °C in 5 % CO2. Viable cells were enumerated by phase contrast microscopy (400× magnification).
as §2

[3] = system: lineage^−ve/CD133^+ve/CD34^+vehuHSC; test: Ex vivo expansion of lineage-ve/CD133+ve/CD34+ve huHSC; type: cell-based, human
Excerpt: as §3, with “Viable cells were enumerated by phase contrast microscopy (400× magnification).” left out
The expression of differentiation markers at the cell surface was determined by flow cytometry. Differentiation of NB-4 and KG1 cells was measured by staining using the monoclonal antibodies CD11b-FITC and CD14-PE and appropriately labeled isotype controls (all from ImmunoTools, Friesoythe, Germany). Differentiation of human CD34^+ve cells was measured by triple-color staining using various cocktails of phycoerythrin-, fluorescein isothyocyanate-, and PerCP-monoclonal antibodies (from Becton–Dickinson, San Jose, CA, USA). […] Cells were analyzed using a FACSCalibur, and data analysis was performed using the CellQuest Pro software (Becton–Dickinson, San Jose, CA, USA).

[4] = system: CD34^+vehuHSCs; test: Week-five CAFC and LTC-IC assays of cultured CD34+ve huHSC; type: cell-based, human; conditions: 100 nM, cells cultured 2 weeks, two donors
Procedure: Assays for week-five cobblestone area forming cells (CAFC), long-term culture-initiating cells (LTC-IC), and colony-forming units (CFU) were performed at the Stem Cell Laboratory at the National Blood Service Stem Cell Laboratory using standard procedures and methods, as described by other workers (de […] and Ploemacher [2001]; Denning-Kendall et al. [1996]; Nicol et al. [1996]). CFU assays were performed using Methocult^TM GF H8444 (StemCell Technologies) and in 35 mm petri dishes. The presence of CAFC was scored as the presence of 12 or more closely associated and small cells that were embedded in the MS5 cell feeder layer and blind by an experienced reader. The nature of CFUs, as to colony-forming unit-granulocyte/erythroid/megakaryocyte/monocyte (CFU-GEMM), colony-forming unit-granulocyte/macrophage (CFU-GM), burst-forming unit-erythroid (BFU-E), and colony-forming unit-erythroid (CFU-E), was scored blind at the service by a person who routinely reads colony assays and is accredited. The nature of colonies was confirmed by sampling colonies and staining cytocentrifuged preparations of cells.

[5] = system: mice; conditions: cited from earlier work
[6] = system: NB-4 cells; test: Differentiation of NB-4 cells (CD11b/CD14 flow cytometry); type: cell-based, human; conditions: 96 h
Procedure: as §1, §2

CCc1ccc(C2=CC(C)(C)Sc3ccc(C#Cc4ccc(C(=O)O)cc4)cc32)cc1 [AGN194310]
effect on differentiation of KG1 cells ([1]; 100 nM together with 10 nM 1,25D): no effect
effect on differentiation of KG1 cells ([1]; 100 nM, used alone): no effect
cells produced versus control cultures ([2]; 10 nM, by day 20, 10 % FBS, SCF, IL-3): around fourfold more cells
time for which cultures were maintained ([2]; 10 nM, 10 % FBS, SCF, IL-3, control cultures expire by day 30): ≤ 55 days
kinetic of cell production compared with 10 nM ([2]; 100 nM, data not shown): almost identical kinetic
effect on rate of myeloid cell differentiation ([2]; CD34+ve huHSC cultures): did not slow down myeloid cell differentiation
prolonged lifespan of cultures ([2]; human HSCs supplemented with stem cell factor ± interleukin 3, abstract): up to 55 days
level of expansion of lineage−ve/CD133+ve/CD34+ve huHSC ([3]; 100 nM, day 30, HPGM, 10 % human serum, 100 ng/ml SCF, mean of seven donors, control ~eightfold): ~ 18 fold
expansion of lineage−ve/CD133+ve/CD34+ve cells ([3]; all 15 donors, control 8–10-fold): around 20 fold
presence of week-five CAFC and LTC-IC [4]: only present in pan-RAR-antagonized wells
expansion of granulopoiesis in knockout mice lacking the receptor for G-CSF ([5]; G-CSFR knockout mice, ref Chee et al. 2013): not seen
effect on myeloid cells after administration to mice ([5]; mice, ref Walkley et al. 2002, Chee et al. 2013): increases in myeloid progenitor cells and mature myeloid cells
effect on differentiation of NB-4 cells ([6]; 100 nM with 10 nM 1,25D, compared with 1,25D alone): did not have an appreciable effect
effect on differentiation of NB-4 cells ([6]; 100 nM, used alone): no effect
